Where a name gives a salt, the structure may show the parent alone. Blank lines part the entries; values can stand above or below the molecule they belong to.
Assays:
RORC2-LBD = biological target: T1, RORC2-LBD (Homo sapiens, UniProt P51449); test: In vitro test for inhibitory activity on RORγ: TR-FRET screening (RORC2-LBD / SRC1 peptide interaction); format: biochemical; details: Value of the concentration required for 50% inhibition (EC50) of RORγ, 15 nM RORc-LBD, 200 nM SRC1 peptide, 4° C. overnight
T1 sequence (P51449 269-508 limits assumed): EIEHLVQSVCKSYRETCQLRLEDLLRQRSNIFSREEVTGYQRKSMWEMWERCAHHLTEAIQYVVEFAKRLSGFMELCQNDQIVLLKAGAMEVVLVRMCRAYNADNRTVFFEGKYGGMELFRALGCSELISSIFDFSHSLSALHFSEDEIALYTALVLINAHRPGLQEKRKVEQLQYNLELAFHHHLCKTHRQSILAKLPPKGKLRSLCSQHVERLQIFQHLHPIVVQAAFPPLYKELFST
Text: The compounds of the present application was able to regulate (inhibit) the bioactivity of the nuclear receptor RORγ, and the strength of this regulatory (inhibitory) effect could be evaluated by a TR-FRET (time-resolved fluorescence resonance energy transfer) screening system. Nuclear receptor cofactors (co-activators and co-inhibitors) could regulate the transcription of a target gene by the interaction with nuclear receptors. If a ligand (test compound) affected the interaction between the nuclear receptors and the cofactors, this ligand (test compound) was able to regulate the transcription of the corresponding gene.
This method adopted the TR-FRET (time-resolved fluorescence resonance energy transfer) technique to determine the ability of a compound to regulate the interaction between the polypeptide indirectly bound to APC […] (namely, APC was indirectly bound to the polypeptide by binding to Streptavidin and biotin) and RORC2-LBD linked to a europium (Eu)-labeled anti-His antibody (Perkin Elmer #AD0111). In the absence of the compound, RORC2 could bind to an APC-modified polypeptide. If the compound was an agonist, it could enhance the interaction between RORC2 and the APC-modified polypeptide after binding to RORC2. On the contrary, if the compound was an inverse agonist, it could inhibit the interaction between RORC2 and the APC-modified polypeptide after binding to RORC2. When the APC-modified polypeptide and the Eu-labeled anti-His antibody-RORC2-LBD complex approached to each other and the distance therebetween was within a certain distance, energy transfer could occur and a TR-FRET signal was generated.
A buffer solution comprising 50 mM Tris (pH 7.0), 50 mM KCl, 1 mM Na-EDTA, 0.01% BSA (0.1 mg/ml), and 0.1 mM DTT was freshly formulated prior to the experiment.
2.3 Formulation of a RORγ-containing working solution. Prior to the test, a working solution containing 1.67 nM Eu/anti-His and 0.75 μl/well of SF9 cell lysate was freshly formulated, and was placed on ice before use. 25.05 nM of RORγ was added to the working solution.
2.5 Ten concentration gradients were set for each test compound, and duplicate wells were set for each concentration. The formulating method of the test compounds was as follows: […]
2) 15 μl of the RORγ-containing working solution was added to columns 1 to 21 of the tested 384-well plate (the final concentration of Eu/anti-His was 1 nM, and the final concentration of RORg was 15 nM); and […]
9) data analysis was performed using the ratio of the numerical value detected at an emission wavelength of 665 nm to the numerical value detected at an emission wavelength of 615 nm. […]

RORγ = biological target: T2, RORγ (Homo sapiens, UniProt P51449); test: In vitro test for inhibitory activity on RORγ: luciferase reporter cells expressing chimeric Gal4-RORγ receptor; format: cell-based; details: Gal4 hybrid receptor luciferase reporter, HEK293, 24 hours incubation
T2 sequence (P51449 97-518): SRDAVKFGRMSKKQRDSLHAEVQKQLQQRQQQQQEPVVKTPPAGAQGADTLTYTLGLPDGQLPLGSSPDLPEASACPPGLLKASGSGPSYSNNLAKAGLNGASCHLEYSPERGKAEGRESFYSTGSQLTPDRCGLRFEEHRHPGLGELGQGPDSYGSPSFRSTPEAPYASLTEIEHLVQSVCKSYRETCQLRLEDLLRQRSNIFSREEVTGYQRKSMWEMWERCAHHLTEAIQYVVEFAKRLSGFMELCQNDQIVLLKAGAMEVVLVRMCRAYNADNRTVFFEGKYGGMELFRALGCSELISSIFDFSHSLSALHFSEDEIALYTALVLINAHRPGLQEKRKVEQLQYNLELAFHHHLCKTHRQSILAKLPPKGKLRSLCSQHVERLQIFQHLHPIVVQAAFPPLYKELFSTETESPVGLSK
Description: Reporter cells: Reporter cells expressing a chimeric RORγ receptor were used in this experiment. The chimeric RORγ receptor was a RORγ receptor formed by replacing the N-terminal DNA-binding domain of the natural RORγ protein with the DNA-binding domain of the yeast Gal4 protein. The luciferase reporter gene was located at the downstream of the Gal4 activating sequence (UAS).
Step 1: Reporter cells were prepared into a cell suspension using INDIGO's Cell Recovery Medium (CRM, containing 5% fetal bovine serum treated by activated carbon). The cell suspension was dispensed into a white 96-well culture plate in a volume of 100 μl/well.
Step 2: Eight concentration gradients were set for each test compound, and the test was conducted twice at each concentration. Prior to the experiment, the main stock solution of the test compound was serially diluted with DMSO, so as to formulate solutions with “1000×-concentration” relative to each of the final test concentrations. Subsequently, the compound was further diluted with the cell recovery medium (CRM, containing 5% fetal bovine serum treated by activated carbon), so as to formulate test working solutions with “2×-concentration”. As per a volume of 100 μl/well, the test working solutions were respectively added to the test wells in which the reporter cells were added in advance, so as to obtain the desired final test concentrations. The residual concentrations of DMSO in all test wells were 0.1%. The test plate was incubated in a cell incubator for 24 hours. Conditions of the incubator were set as follows: temperature: 37° C., 5% CO2, humidity: ˜85%.
Step 3: After 24 hours of incubation, the liquid in the culture plate was discarded, 100 μl of luciferase detection reagent was added to each test well, and then, the fluorescence intensity (Relative Luminescence Units, RLUs) in each well was read.
In this test, the reference compound ursolic acid was used as an internal standard of a positive compound to verify the inhibitory effect of the test compound on RORγ in reporter cells of a specific batch. The tests for the reference compound and the test compound were performed simultaneously, and the reference compound and the test compound were thus exposed to the same test reagent and environment. The reference compound group containing 0.1% DMSO as solvent was used as an internal standard of a positive compound, so as to determine the effect of the solvent DMSO on the test results and calculate the percentage reduction in RORγ activity.
The test data was managed and archived by Microsoft Excel, and mean±standard deviation (SD) of RLU, fold of reduction, inhibition rate, coefficient of variation (% CV) and Z factor were calculated. Coefficient of variation (% CV): 100×(SD/Ave. RLU); Fold of reduction for inverse agonist: [Ave. […]

[1] = test system: MOG35-55-induced experimental autoimmune encephalomyelitis (EAE); test: In vivo pharmacodynamic research on MOG35-55-induced experimental autoimmune encephalomyelitis (EAE) in mice; details: G3, 0.5 mg/kg p.o. qd
Description: The day of immunization was recorded as day 0, and the subsequent days were marked sequentially. Mice were anesthetized with isoflurane, and 100 μl of the emulsion was administered via subcutaneous injection at three sites (the middle part between shoulder and back, and two sides of the tail that were close to the groin), namely, 33 μl of the emulsion for each site. 0 hour and 48 hours after the injection of the emulsion, 200 ng (i.e. 200 μl) of the PTX solution was intraperitoneal injected. Mice in the normal group were not required to be immunized.
After the immunization on day 0, the immunized mice were randomly divided into 3 groups with 10 mice in each group according to the body weights except for the mice in the normal group, the details were shown in Table 1. FTY720 served as a positive drug, and a dose of […] was an effective dose commonly used in the EAE model.
The first group was normal mice without any treatment; vehicle was administered to the second group; FTY720 was administered to the third group at a dose of 0.5 mg/kg once a day; and the compound of Example 1 was administered to the fourth group at a dose of 75 mg/kg twice a day. The administration lasted for 25 days in total. The volume of intragastric administration was 10 ml/kg.
The day when animals were immunized was day 0. Animal body weights were recorded three times a week from day 0 to day 10, and the body weights and clinical scores of the animals were closely observed and recorded daily from day 11.
The experimental data was expressed as mean±standard error of mean (Mean±SEM).
The area under the curve of clinical scores over time (i.e. “AUC of clinical scores” or “area under the curve of clinical scores”) was calculated by analyzing the curve of clinical scores for each animal in each group, and the inhibition rates of the remaining groups (G1, G3, and G4) relative to G2 (solvent control group) were calculated by the mean AUC of clinical scores among groups.

[2] = test system: imiquimod-induced psoriasis; test: In vivo pharmacodynamic study in imiquimod (IMQ)-induced psoriasis model in mice; design: species or system C57BL/6 mice; key to Clinical scores (Mean ± SEM, n = 8): 0 = no disease, 1 mild, 2 moderate, 3 severe, 4 very severe; details: 5 mg/kg, ig
Description: 6- to 8-week old female C57BL/6 mice were selected, depilated on the backs, and sensitized two days later except for the sham operation group. On the day of sensitization, the mice were randomly divided into the following 6 groups (8 mice per group). Group I was a sham operation group; Group II was a vehicle control group and PBS was administered; Group III was a positive control group and 5 mg/kg methotrexate was administered; Groups IV, V and VI were ip treatment group, ig treatment group, and topical treatment group of the compound of Example 1, and 75 mg/kg of the compound of Example 1 was administered via intraperitoneal injection, intragastric administration, and dorsal application, respectively. Administration was started on the day of sensitization, once daily for Group III and twice daily for Groups IV to VI. On the day of sensitization, the mice in Groups II to VI were given 60 to 80 mg of imiquimod cream (5%) on the dorsal skin for 4 consecutive days. (Please refer to Bouchaud, G., et al., Epidermal IL-15Ralpha acts as an endogenous antagonist of psoriasiform inflammation in mouse and man. J. Exp. Med., 2013. 210(10): p. 2105-17.)
The mice were weighed daily from the day of sensitization, and the skin scales, induration, and erythema were observed and scored according to a four-grade scoring method: 0 point, no disease; 1 point, mild; 2 points, moderate; 3 points, severe; and 4 points, very severe. (Please refer to Qin, S., et al., Endogenous n-3 polyunsaturated fatty acids protect against imiquimod-induced psoriasis-like inflammation via the IL-17/IL-23 axis. Mol Med Rep, 2014. 9(6): p. 2097-104.)

SMILES: CCS(=O)(=O)c1ccc(CNC(=O)c2cc3c(s2)C(C(C)C)N(CC2CCC(C(F)(F)F)CC2)C3=O)nc1 (single isomer, unassigned) [Example 3]
EC50 (RORγ; Specific value of the concentration required for 50% inhibition (EC50) of RORγ): 147 nM
EC50 (RORγ; Value of the concentration required for 50% Inhibition (EC50) of RORγ): 100 to 500 nM
EC50 (RORC2-LBD): 100 to 500 nM

SMILES: CCCCCCCCc1ccc(CCC(N)(CO)CO)cc1 [FTY720, fingolimod hydrochloride, reference compound]
inhibition rate of AUC of clinical scores relative to solvent control group ([1]; 25 days, FIG. 2): 100%
morbidity of EAE ([1]; from the beginning to end, FIG. 3): 0
body weight changes ([1]; significantly different from solvent control group, FIG. 4): kept increasing

SMILES: CN(Cc1cnc2nc(N)nc(N)c2n1)c1ccc(C(=O)N[C@@H](CCC(=O)O)C(=O)O)cc1 [Methotrexate, reference compound]
Clinical scores (Mean ± SEM, n = 8) ([2]; Day 1): 0 ± 0
Clinical scores (Mean ± SEM, n = 8) ([2]; Day 2): 0.19 ± 0.13
Clinical scores (Mean ± SEM, n = 8) ([2]; Day 3): 0.50 ± 0.13
Clinical scores (Mean ± SEM, n = 8) ([2]; Day 4): 0.88 ± 0.25
Clinical scores (Mean ± SEM, n = 8) ([2]; Day 5): 0.93 ± 0.23

Second part, the molecule after the results:

EC50 (RORC2-LBD): 1000 to 5000 nM
SMILES: CCS(=O)(=O)c1ccc(CNC(=O)c2cc3c(s2)C(C(C)C)N(CC2CCC(C(F)(F)F)CC2)C3=O)nc1 (single isomer, unassigned) [Example 4]

EC50 (RORC2-LBD): < 100 nM
SMILES: CCS(=O)(=O)c1ccc(CNC(=O)c2cc3c(s2)C(C(C)C)N(Cc2ccc(C(F)(F)F)cc2)C3)nc1 (stereo not shown) [Example 9]
